The source of these data is publication PMC3573960 (Molecular Neurodegeneration, 2012).

The test system of data set [1] is Tg2576 mice. As to the kind of experiment: Amorfix A4 assay of aggregated Aβ in Tg2576 mouse brain. The data set is classed as in vivo. Conditions: 50 weeks. On the procedure: (§1) Male Tg2576 and WT mice were both derived from crosses of male Tg2576 mice and female B6SJLF1 mice (Taconic) and were singly housed upon arrival. […] Some animals were euthanized as described above. For histological studies, a subset of mice were euthanized by CO2 asphyxiation and transcardially perfused with cold 0.9% NaCl. The right hemispheres were immersion fixed in fresh 4% paraformaldehyde in 0.1 M phosphate buffer, pH 7.4 for 1 h, transferred to a 15% sucrose cryoprotectant for 24 h at room temperature, and on the next day, frozen in isopentane chilled by dry ice for 1 min. The left cerebral hemisphere was cut into 2 pieces, weighed, and frozen.
The A4 assay (Amorfix Life Sciences, Toronto, Canada) was employed to quantify levels of aggregated Aβ in Tg2576 mouse brains. […] Aβ was detected by immunoassay following incubation at 37°C with europium-fluorescent beads coupled to the mouse monoclonal 4G10 antibody (N-terminal Aβ, aa 1–17) and magnetic beads coupled to the antibodies 1F8 (C-terminal Aβ, aa 3–40) and 2H12 (C-terminal Aβ, aa 3–42). […] The intensity of the europium fluorescent signal was measured using time resolved fluorescence on each sample in triplicate and was taken as being directly proportional to the concentration of aggregated Aβ in the sample. […]

The target in another data set is T1, COX-2 (Homo sapiens, UniProt P35354).
T1 construct: purchased Cerep (Redmond, WA) 0727; host or cells: Sf9
T1 sequence (P35354 18-604): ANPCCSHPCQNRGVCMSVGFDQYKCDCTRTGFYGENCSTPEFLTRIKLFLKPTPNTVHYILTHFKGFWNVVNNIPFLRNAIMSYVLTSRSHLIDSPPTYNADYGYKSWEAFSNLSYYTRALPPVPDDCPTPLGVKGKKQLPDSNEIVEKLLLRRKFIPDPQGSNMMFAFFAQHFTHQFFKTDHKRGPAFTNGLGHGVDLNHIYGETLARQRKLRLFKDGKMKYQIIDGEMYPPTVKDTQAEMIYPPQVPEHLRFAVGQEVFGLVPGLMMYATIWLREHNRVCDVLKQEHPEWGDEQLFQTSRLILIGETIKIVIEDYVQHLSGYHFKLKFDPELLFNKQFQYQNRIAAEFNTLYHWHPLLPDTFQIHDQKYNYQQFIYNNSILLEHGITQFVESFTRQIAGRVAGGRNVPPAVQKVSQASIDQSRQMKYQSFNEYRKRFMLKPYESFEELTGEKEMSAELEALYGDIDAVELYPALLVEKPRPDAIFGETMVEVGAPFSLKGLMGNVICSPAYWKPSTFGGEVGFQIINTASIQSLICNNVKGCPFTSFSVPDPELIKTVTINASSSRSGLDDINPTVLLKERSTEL
Kind of data set: COX-2 enzyme assay (Cerep). The class given is biochemical. Conditions: at 30 μM, human recombinant, arachidonic acid 2 μM. On the procedure: COX-1 and COX-2 enzyme assays were performed by Cerep (Redmond, WA, Catalog # 0726 and 0727). Briefly, the assays used human recombinant Sf9 cells and arachidonic acid (4 μM for COX-1 and 2 μM for COX-2) as the substrate. Production of PGE2 was detected by enzyme immunoassay.

The subject of data set [2] is Tg2576 mice. Kind of data set: Chronic treatment of Tg2576 mice, sequentially extracted brain Aβ by ELISA. The data set is classed as in vivo, mouse. The note with it: 50 weeks. The text has this: Male Tg2576 and WT mice were both derived from crosses of male Tg2576 mice and female B6SJLF1 mice (Taconic) and were singly housed upon arrival. […] Some animals were euthanized as described above. For histological studies, a subset of mice were euthanized by CO2 asphyxiation and transcardially perfused with cold 0.9% NaCl. […] The left cerebral hemisphere was cut into 2 pieces, weighed, and frozen.

Data set [3] relates to γ-secretase. Kind of data set: APP CTF accumulation in H4-APP751 cell lysates (Western blot). The class given is cell-based, human. The note with it: H4-APP751 cells, 16 h. An excerpt:
Cells were lysed in situ and the resulting lysate cleared of nuclei by centrifugation, as described elsewhere. Samples were fractionated by SDS-PAGE on a 12% NuPage gel (Invitrogen), transferred to a nitrocellulose membrane, and immunoblotted with an anti-APP-CTF antibody (Sigma-Aldrich).
(In general: In western blotting, separated proteins are transferred to a membrane and probed.)

Data set [4] relates to γ-secretase. As to the kind of experiment: H4-APP751 cell-based assay for secreted Aβ peptides (sandwich ELISA). Also noted: species or system human. The note with it: H4-APP751 cells, up to 3 μM.
Method: Human neuroglioma H4 cells (ATCC, Manassas, VA) were transfected with a pcDNA3.1 (Invitrogen, Carlsbad, CA) plasmid expressing human wild type APP751 cDNA; and a stable cell line was generated using G418 (Invitrogen) selection [55]. Prior to experimentation, H4-APP751 cells were maintained in Dulbecco’s modified Eagle’s high glucose medium with 10% fetal bovine serum, 1% penicillin-streptomycin, 2 mM L-glutamine, and 0.4 mg/mL G418. All culture reagents were from Invitrogen.
Plates were incubated overnight (16–18 h) and supernatant was removed for quantification of Aβ peptides by sandwich ELISA. Cytotoxicity was evaluated using CellTiter 96® AQueous One Solution Cell Proliferation Assay (MTS Assay, Promega, Madison, WI) according to the manufacturer’s protocol.
Aβ peptide levels were quantified by sandwich ELISA. […]
Freshly collected samples of cultured cell supernatant or synthetic peptides (American Peptide Co., Sunnyvale, CA or California Peptide Research, Inc., Napa, CA) for standard curves were diluted with media, and loaded into anti-Aβ antibody-coated plates and incubated at 4°C for about 24 h. Aβ peptides were detected with the 4G8 antibody (Aβ, aa 17–24) conjugated to horseradish peroxidase (Covance, Inc., Princeton, NJ), and SureBlue 3,3’,5,5’-tetramethylbenzidine (TMB) peroxidase substrate (KPL, Inc., Gaithersburg, MA). […]
The subject of data set [5] is Tg2576 mice. As to the kind of experiment: Tolerability in chronic treatment study (body weight, organs, survival). The class given is in vivo, mouse. On the procedure: as §1

`O=C(O)[C@H](CC1CCC1)c1cc(Cl)c(OCC(F)(F)F)c(-c2ccc(C(F)(F)F)cc2)c1` [EVP-0015962, (R)-2-(5-chloro-6-(2,2,2-trifluoroethoxy)-4’-(trifluoromethyl)biphenyl-3-yl)-3-cyclobutylpropanoic acid]: the “reduction in aggregated Aβ” value in the data set on Tg2576 mice [1] (20 mg/kg/day) amounted to 19%. The “reduction in aggregated Aβ compared to the control diet group” value with Tg2576 mice [1] (60 mg/kg/day) is on record as 73%. Further, on COX-2, the “percent inhibition for COX-2” value amounted to 56%. Moreover, in the data set on Tg2576 mice [2] (20 mg/kg/day), the “Aβ38 in the TBS soluble fraction” value is reported as “did not produce a significant increase”, the “percent reduction in Aβ42 in the TBS soluble fraction” value was determined as 53%, the “reduction in AβTotal in the formic acid extractable fraction” value was 49% and the “reduction in formic acid extractable Aβ42” value worked out at 53%. Also, in the data set on Tg2576 mice [2] (60 mg/kg/day), the “age-related increase in soluble and insoluble Aβ42” value was “prevented the dramatic increase”; the “increase in Aβ38 in the TBS soluble fraction” value worked out at 78%; the “percent reduction in Aβ42 in the TBS soluble fraction” value is reported as 89%; the “reduction in AβTotal in the formic acid extractable fraction” value is given as 64%. For the same compound, the “reduction in formic acid extractable Aβ42” value in the data set on Tg2576 mice [2] (60 mg/kg/day) is 86%. Besides, in the data set on Tg2576 mice [2] (20 or 60 mg/kg/day), the “Aβ38 in the formic acid extractable fraction” value was “not significantly changed” and the “AβTotal in the TBS soluble fraction” value is “unchanged”. In the data set with Tg2576 mice [2] (lower dose (20 mg/kg/day)), the “age-related increase in Aβ42” value is “partially effective”. For the same compound, the “Full length APP” value in the data set on γ-secretase [3] (1 nM to 10 μM) is on record as “not altered”. Moreover, the “accumulation of APP α- or β-CTFs” value in the data set on γ-secretase [3] (concentrations up to 10 μM) is “did not cause the accumulation”. Moreover, the “levels of AβTotal” value in the data set with γ-secretase [4] is on record as “remained unchanged”. In the data set with Tg2576 mice [5] (Tg2576 mice, 60 mg/kg/day, 50 weeks), the “mortality (percent of group lost)” value was found to be 25%. Also, in the data set with Tg2576 mice [5] (Tg2576 mice, 20 or 60 mg/kg/day, 50 weeks), the “body weight among the treatment groups” value is recorded as “no significant differences”. Further, the “effects on intestinal goblet cells or any other organ system examined” value with Tg2576 mice [5] (satellite animals, up to 60 mg/kg/day, 11 weeks) is “no evidence of effects”.
